One assay concerns HIF hydroxylases. The assay can be described thus: assays in which the compound replaces 2-oxoglutarate as co-substrate. The format is biochemical. The settings on record: compared with 2-oxoglutarate under analogous conditions. An excerpt: Another aspect of the invention concerns analogues of 2-oxoglutarate that act as improved (relative to 2-oxoglutarate) co-substrates for the HIF hydroxylases. Such a compound is 3-fluoro 2-oxoglutarate.

For the next assay, the system named is HIF hydroxylase. The assay can be described thus: capture assay for inhibitors of HIF modification (pVHL capture). Particulars: result in words; screening at 2 mM of the potential inhibitor, RCC4 cell extract, 100 μM FeCl2. It counts as biochemical. As for the experimental part:
In vitro screening of potential inhibitors of HIF modification was performed using a capture assay. A Gal/HIF-1α/VP16 fusion protein expressing HIF-1α residues 549-582 was prepared by IVTT (see British Application No. 0118952.1) and used as a substrate in the assay. The unlabelled substrate was immunopurified on beads, washed, and aliquots incubated in the presence of RCC4 cell extract, with 100 μM FeCl2 and 2 mM of the potential inhibitor. The inhibitors were either dissolved in DMSO or Tris as indicated. Controls, where no inhibitor but the equivalent amount of DMSO or Tris was added, were also performed. After washing, the beads were assayed for their ability to interact with 35-S labelled pVHL IVTT. Hydroxylation of the fusion protein by HIF hydroxylase present in the cell extract leads to the ability to capture the labelled pVHL and the amount of labelled protein bound to the fusion protein can then be measured to determine relative HIF hydroxylase activity. FIGS. 1 to 5 show HIF hydroxylase activity in the presence of a particular inhibitor relative to that seen in the absence of the inhibitor (the DMSO/Tris control).

On to `O=C(O)CC(F)C(=O)C(=O)O` (centres unmarked) [3-fluoro 2-oxoglutarate, 3-fluoro-2-oxoglutaric acid], for which, in the assay with HIF hydroxylases, the “level of HIF hydroxylation” value is listed as “higher level of HIF hydroxylation”.

With `O=C(O)CC1CC(=O)N(O)C1=O` (centres unmarked) [Is52, (1-hydroxy-2,5-dioxo-pyrrolidin-3-yl) acetic acid], in the assay with HIF hydroxylase, the “activity as modulator of HIF prolyl hydroxylase” value is listed as “highly active”.

Source of the values: patent US7662854B2, “HIF hydroxylase inhibitors” (ISIS Innovation Limited, priority 2002, dated 2010).
